Measurements: PubChem BioAssay (NCI)
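Tested at 5 concentrations; 48 h exposure; 96-well plates; endpoints linearly interpolated, else capped at highest concentration. GI50 = concentration required for 50% inhibition of growth. The concentration for full growth arrest is given as TGI.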

Experiments:
Assay in all cases: NCI anticancer screen, dose series, 48 h
OVCAR-3 ovarian = test system: OVCAR-3 ovarian
SF-295 CNS = test system: SF-295 CNS
M14 melanoma = test system: M14 melanoma
SF-539 CNS = test system: SF-539 CNS
IGROV1 ovarian = test system: IGROV1 ovarian
DU-145 prostate = test system: DU-145 prostate
SN12C renal = test system: SN12C renal
RXF 393 renal = test system: RXF 393 renal
PC-3 prostate = test system: PC-3 prostate
HS 578T breast = test system: HS 578T breast
UACC-257 melanoma = test system: UACC-257 melanoma
OVCAR-5 ovarian = test system: OVCAR-5 ovarian
OVCAR-4 ovarian = test system: OVCAR-4 ovarian
HT29 colon = test system: HT29 colon
HCT-15 colon = test system: HCT-15 colon
SK-MEL-28 melanoma = test system: SK-MEL-28 melanoma
LOX IMVI melanoma = test system: LOX IMVI melanoma
RPMI-8226 leukemia = test system: RPMI-8226 leukemia
HCC-2998 colon = test system: HCC-2998 colon
BT-549 breast = test system: BT-549 breast
OVCAR-8 ovarian = test system: OVCAR-8 ovarian
SNB-75 CNS = test system: SNB-75 CNS
NCI-H226 lung = test system: NCI-H226 lung
786-0 renal = test system: 786-0 renal
MDA-MB-435 = test system: MDA-MB-435
T-47D breast = test system: T-47D breast

CN(C)CCNc1c2c(c(NCCN(C)C)c3[nH]ccc13)C(=O)c1ccccc1C2=O
GI50 (OVCAR-3 ovarian): 0.639 µM | TGI (OVCAR-3 ovarian): 6.59 µM | GI50 (SF-295 CNS): 0.693 µM | TGI (SF-295 CNS): 3.25 µM | GI50 (M14 melanoma): 3.68 µM | TGI (M14 melanoma): 29.9 µM | GI50 (SF-539 CNS): 1.01 µM | TGI (SF-539 CNS): 3.8 µM | GI50 (IGROV1 ovarian): 1.19 µM | TGI (IGROV1 ovarian): > 100 µM | GI50 (DU-145 prostate): 0.587 µM | TGI (DU-145 prostate): 3.1 µM | GI50 (SN12C renal): 0.519 µM | TGI (SN12C renal): 2.61 µM | GI50 (RXF 393 renal): 1.5 µM | TGI (RXF 393 renal): 3.63 µM | GI50 (PC-3 prostate): 0.609 µM | TGI (PC-3 prostate): 11.1 µM | GI50 (HS 578T breast): 2.74 µM | TGI (HS 578T breast): 9.26 µM | GI50 (UACC-257 melanoma): 4.71 µM | TGI (UACC-257 melanoma): 19 µM | GI50 (OVCAR-5 ovarian): 2.1 µM | TGI (OVCAR-5 ovarian): 13 µM | GI50 (OVCAR-4 ovarian): 1.05 µM | TGI (OVCAR-4 ovarian): 3.11 µM | GI50 (HT29 colon): 0.465 µM | GI50 (HCT-15 colon): 0.168 µM | TGI (HCT-15 colon): 3.55 µM | GI50 (SK-MEL-28 melanoma): 3.1 µM | TGI (SK-MEL-28 melanoma): 9.5 µM | GI50 (LOX IMVI melanoma): 0.737 µM | TGI (LOX IMVI melanoma): 3.39 µM | GI50 (RPMI-8226 leukemia): 0.737 µM | TGI (RPMI-8226 leukemia): 2.79 µM | GI50 (HCC-2998 colon): 0.393 µM | TGI (HCC-2998 colon): 3.28 µM | GI50 (BT-549 breast): 1.08 µM | TGI (BT-549 breast): 3.04 µM | GI50 (OVCAR-8 ovarian): 0.532 µM | TGI (OVCAR-8 ovarian): 9.21 µM | GI50 (SNB-75 CNS): 2.75 µM | TGI (SNB-75 CNS): 30.6 µM | GI50 (NCI-H226 lung): 5.03 µM | TGI (NCI-H226 lung): 15.8 µM | GI50 (786-0 renal): 0.899 µM | GI50 (MDA-MB-435): 1.54 µM | TGI (MDA-MB-435): 5.14 µM | GI50 (T-47D breast): 2.87 µM | TGI (T-47D breast): > 21.2 µM
